# Reference: article PMC4131461, “Antiviral Action of Synthetic Stigmasterol Derivatives on Herpes Simplex Virus Replication in Nervous Cells In Vitro” (BioMed Research International, 2014)
# How the values were obtained:
# [1] = system: IFN-γ; test: IFN-gamma secretion in HSV-1-infected Neuro-2a cells (ELISA); assay type: cell-based, Murine; settings: HSV-1 KOS-infected Neuro-2a cells, 10 μM compound 1 / 5 μM compound 2, 24 h; for IFN-γ levels: infected control 154.7 ± 7.2
# Procedure: (§1) Neuro-2a cells grown in 24-well plates were infected with HSV-1 at a multiplicity of infection (m.o.i.) of 1. After 24 h of incubation at 37°C cells supernatants were harvested and cytokines were quantified. Murine IL-6 and IFN-gamma were quantified by commercial ELISA sets (BD OptEIATM, Becton Dickinson, USA) according to manufacturer instructions.
# (§2) On the other hand, compound 2 increases IL-6 levels in human epithelial cells infected with HSV-1 [12]. […] For that purpose, we used those supernatants in which the antiviral effect of compounds 1 and 2 was found (Figure 3(b)). IL-6 and IFN-γ secretion reached 659.6 ± 14.8 pg/mL and 154.7 ± 7.2 pg/mL in HSV-1 infected control cells, respectively. […] IFN-γ levels dropped to 72.3 ± 4.9 pg/mL (P < 0.006) (53.3%) and to 53 ± 4.2 pg/mL (P < 0.001) (65.7%) with respect to untreated infected cells after treatment with 1 and 2. Thus, compounds 1 and 2 might display an anti-inflammatory activity in HSV-1-infected Neuro-2a cells.
# [2] = system: IL-6; design: method as in earlier work; settings: HSV-1-infected epithelial cells (IOBA-NHC and HCLE); Michelini, personal communication; cited from earlier work
# [3] = system: HSV-1 Cgal; test: HSV-1 Cgal propagation, in situ beta-gal staining; assay type: cell-based, herpes simplex virus type 1; settings: PC-12, Neuro-2a, SH-SY5Y cells, m.o.i. 1, 10 μM of 1 / 5 μM of 2, 24 h
# Procedure: (§3) Cells grown in coverslips inside 24-well plates were infected with HSV-1 Cgal. After adsorption, inocula were eliminated and cells were covered with MEM 1.5%. At 24 h after infection (p.i.), supernatants were harvested and stored at −70°C for titration, and cells were stained in situ for β-gal. Coverslips were mounted, observed with an Olympus BX61 microscope, and photographed.
# We have previously reported that compounds 1 and 2 inhibit HSV-1 propagation in IOBA-NHC cells. To investigate the effect of both compounds on viral propagation, PC-12, Neuro-2a, and SH-SY5Y cells grown in coverslips inside 24-well plates were infected with HSV-1 Cgal (m.o.i. = 1) and, then, treated with control media, 10 μM of 1 and 5 μM of 2. After 24 h incubation at 37°C, cells were stained in situ for β-gal. […] Therefore, both compounds would prevent HSV-1 Cgal spreading in all nervous cell lines assayed when added after infection.
# Figure 4 Effect of compounds 1 and 2 on HSV-1 propagation. (a) PC-12, (b) Neuro-2a, and (c) SH-SY5Y cells monolayers grown in coverslips inside 24-well plates were infected with HSV-1 Cgal and incubated for 1 h at 37°C. Then, cells were covered with DMEM/F12 2% or media containing 10 μM of compound 1 and 5 μM of compound 2. After incubation for 24 h, cells were stained in situ for β-gal. […]
# [4] = MTT cytotoxicity assay in SH-SY5Y cells; assay type: cell-based; settings: human, SH-SY5Y cells (confluent nongrowing monolayers), 24 h incubation at 37°C
# Procedure: (§4) Cell viability in the presence of different concentration of the compound was determined using the MTT assay. The absorbance of each well was measured on Eurogenetics MPR-A 4i microplate reader using a test wavelength of 570 nm and a reference wavelength of 630 nm. The CC50 was defined as the concentration of the compound that caused a 50% reduction in absorbance.
# (§5) Fifty percent cytotoxic concentration (CC50) for PC-12, Neuro-2a, and SH-SY5Y cells was determined. Compounds 1 and 2 were added to confluent nongrowing cells in concentrations ranging from 1 to 144 μM and from 1 to 129 μM, respectively, and, after 24 h incubation at 37°C, a MTT colorimetric assay was performed.
# (§6) Figure 2 Cytotoxic effect of compounds 1 and 2 in three nervous cell lines. (a) PC-12, (b) Neuro-2a, and (c) SH-SY5Y cells monolayers were incubated in the presence of different concentrations of compounds 1 and 2. After 24 h of incubation at 37°C cell viability was determined by the MTT assay. The CC50 was defined as the concentration of the compound that caused a 50% reduction in cell viability. Data are mean values from four separate experiments.
# [5] = system: glucocorticoid receptors (GR); design: method as in Michelini, personal communication; settings: ref Michelini, personal communication; cited from earlier work
# [6] = system: glucocorticoid receptors (GR); design: method as in Michelini, personal communication; settings: ref Michelini, personal communication; cited from earlier work; remark: listed apart in the source
# [7] = system: IOBA-NHC cells; settings: cited from earlier work
# [8] = MTT cytotoxicity assay in PC-12 cells; assay type: cell-based; settings: rat, PC-12 cells (confluent nongrowing monolayers), 24 h incubation at 37°C
# Procedure: as §4, §5, §6
# [9] = system: TNF-α; design: method as in earlier work; settings: compound 1: HSV-1-infected epithelial cells; compound 2: IOBA-NHC cells; Michelini, personal communication; cited from earlier work
# [10] = system: HSV-1 Cgal; test: HSV-1 Cgal virus yield reduction in nervous cell lines (plaque assay); assay type: cell-based, herpes simplex virus type 1; settings: regardless of the virus strain used (KOS wt or Cgal); PC-12, Neuro-2a, SH-SY5Y cells; 10 μM compound 1 / 5 μM compound 2, 24 h
# Procedure: (§7) Cells grown in 24-well plates were infected with HSV-1 KOS and, after virus adsorption, treated or not with the compounds. After 24 h of incubation at 37°C, supernatants were collected and titrated in Vero cells. Briefly, Vero cells grown in 24-well plates were infected with serial 10-fold dilutions of viral yields and incubated for 1 h at 37°C. Residual inocula were replaced by maintenance medium with 0.7% of methylcellulose. After 72 h of incubation at 37°C, cells were fixed with formaldehyde 10% and stained with Crystal Violet, and plaque forming units were counted.
# as §3
# Figure 3 Effect of compounds 1 and 2 on HSV-1 virus yield reduction. (a) PC-12, (b) Neuro-2a, and (c) SH-SY5Y cells were infected with HSV-1 KOS (black bars) and HSV-1 Cgal (grey bars) and incubated for 1 h at 37°C. Then, cells were covered with DMEM/F12 2% or media containing 10 μM of compound 1 and 5 μM of compound 2. After 24 h supernatants were harvested and viral titres were determined by plaque assay. […]
# [11] = system: IL-6; test: IL-6 secretion in HSV-1-infected Neuro-2a cells (ELISA); assay type: cell-based, Murine; settings: HSV-1 KOS-infected Neuro-2a cells, 10 μM compound 1 / 5 μM compound 2, 24 h; for IL-6 levels, reduction: vs untreated infected cells; for IL-6 levels: infected control 659.6 ± 14.8
# Procedure: as §1, §2
# [12] = MTT cytotoxicity assay in Neuro-2a cells; assay type: cell-based, Murine; settings: mouse, Neuro-2a cells (confluent nongrowing monolayers), 24 h incubation at 37°C
# Procedure: as §4, §5, §6
# [13] = system: HSV-1 KOS wt strain; test: HSV-1 KOS wt virus yield reduction in nervous cell lines (plaque assay); assay type: cell-based, herpes simplex virus type 1; settings: SH-SY5Y cells, m.o.i. 1, 5 μM compound 2, 24 h
# Procedure: as §7
# Neuro-2a, PC-12, and SH-SY5Y cells grown in 24-well plates were infected with HSV-1 KOS wt strain at m.o.i. of 1. After 24 h of incubation at 37°C, supernatants were collected and titrated in Vero cells.
# Figure 3 Effect of compounds 1 and 2 on HSV-1 virus yield reduction. (a) PC-12, (b) Neuro-2a, and (c) SH-SY5Y cells were infected with HSV-1 KOS (black bars) and HSV-1 Cgal (grey bars) and incubated for 1 h at 37°C. Then, cells were covered with DMEM/F12 2% or media containing 10 μM of compound 1 and 5 μM of compound 2. After 24 h supernatants were harvested and viral titres were determined by plaque assay. Bars show average of two replicates ± SD. *P < 0.05, with respect to untreated infected cells.
Structure (SMILES),"IFN-γ levels, drop with respect to untreated infected cells [1]",IFN-γ levels [1],effect on IL-6 levels [2],HSV-1 Cgal propagation (β-gal stained cells) [3],CC50 at 24 h [4],induction of glucocorticoid activity via GR activation [5],binding to glucocorticoid receptors (GR) [6],CC50 [7],CC50 at 24 h [8],effect on TNF-α levels [9],reduction in viral yields [10],"IL-6 levels, reduction [11]",IL-6 levels [11],CC50 at 24 h [12],inhibition of HSV-1 yield [13]
"CC[C@@H](C(C)C)[C@H](O)[C@@H](O)[C@@H](C)[C@H]1CC[C@H]2[C@@H]3CCC4=CC(=O)CC[C@]4(C)[C@H]3CC[C@]12C [Compound 1, (22S,23S)-22,23-dihydroxystigmast-4-en-3-one]",53.3%,72.3 ± 4.9 pg/mL,does not reduce,only scattered stained cells,77.2 µM,none of them was able to,none of them was able to bind,71.2 µM,> 144 µM,does not reduce,1-2 log,46.2%,355.4 ± 10.9 pg/mL,80.4 µM,
"CC[C@@H](C(C)C)[C@H](O)[C@@H](O)[C@@H](C)[C@H]1CC[C@H]2[C@@H]3CC(=O)[C@@]4(O)C[C@@H](Br)CC[C@]4(C)[C@H]3CC[C@]12C [Compound 2, (22S,23S)-3β-bromo-5α,22,23-trihydroxystigmastan-6-one]",65.7%,53 ± 4.2 pg/mL,increases,only scattered stained cells,70 µM,none of them was able to,none of them was able to bind,> 277 µM,> 129 µM,inhibits,1-2 log,41.1%,388.2 ± 11.4 pg/mL,65.2 µM,~2 logs
